According to patent US10449216B2, “Modulating drug effects against metabotropic glutamate receptor with extracellular calcium” (GEORGIA STATE UNIVERSITY RESEARCH FOUNDATION, INC., priority 2013, dated 2019):

How the values were obtained:
[1] = target: T1, WT mGluR1α (Rattus norvegicus, UniProt P23385); assay: Single cell Fura-2 [Ca^2+]i response in HEK293 cells transiently transfected with WT mGluR1α; format: cell-based; settings: for Response to [Ca^2+]o: Maximal Response / Max. Res. to Ca^2+: normalized to maximal response of WT mGluR1α to L-Glu
T1 construct: expressed in transfected cells; host or cells: HEK293
Protocol: The methods for measuring [Ca^2+]i responses were as described above. In the presence of (s)-MCPG, the cells were incubated with 0.5 mM (s)-MCPG in a saline buffer for 30 more minutes after Fura-2 loading.
Fura-2AM was used for monitoring [Ca^2+]i in real time as described above. […] Cells loaded with Fura-2AM were mounted onto a chamber perfused with saline buffer.

[2] = target: T1, WT mGluR1α; assay: [^3H]-L-Quis binding to membranes of HEK293 cells expressing WT mGluR1α
[3] = target: T2, mGluR1α D322I (Rattus norvegicus, UniProt P23385, D322I); assay: [^3H]-L-Quis binding to membranes of HEK293 cells expressing D322I; settings: in the presence of 30 nM [^3H]-L-Quis, read-out: KD, [Ca^2+]o-binding affinity of mGluR1α
T2 construct: expressed in transfected cells; host or cells: HEK293

[4] = target: T3, mGluR1α E325I (Rattus norvegicus, UniProt P23385, E325I); assay: [^3H]-L-Quis binding to membranes of HEK293 cells expressing E325I; settings: with 300 nM [^3H]-L-Quis, read-out: KD, [Ca^2+]o-binding affinity of mGluR1α
T3 construct: expressed in transfected cells; host or cells: HEK293

[5] = target: mGluR5 (Rattus norvegicus, UniProt P31424); assay: Intracellular Ca^2+ response/oscillation in mGluR5 transfected HEK293 cells; format: cell-based; parameters: expressed in transfected cells; host or cells: HEK293; settings: no other agonist
Protocol: HEK293 cells were fed on a Dulbecco's Modified Eagle Medium (DMEM) and 10% fetal bovine serum (Invitrogen) and cultured at 37° C. in a humidified incubator with 5% CO2. One day before transfection, HEK293 cells were grown on 22×44 mm coverslips and then were transfected with mGluR5 plasmid (received as a gift from Dr. Randy Hall, Emory University, Atlanta, Ga.) with the aid of lipofectamine 2000 (Invitrogen). mGluR5 transfected HEK293 cells were grown for 48 hours and then loaded with 4 µM Fura-2 AM in loading buffer containing 10 mM HEPES (pH 7.4), 140 mM NaCl, 5 mM KCl, 0.55 mM MgCl2 for 30 minutes at 37° C. The coverslips were then mounted in a bathing chamber on the stage of a fluorescence microscope. […] The ratio of fluorescence emitted at 510 nm resulting from excitation at 340 or 380 nm was analyzed to obtain the [Ca^2+]i response as a function of changes in [Ca^2+]o.
HEK293 cells were cultured and transfected as described above. Intracellular Ca^2+ concentration was recorded using the method as described previously. […]

[6] = target: mGluR1 (Rattus norvegicus, UniProt P23385); assay: Fura-2 intracellular calcium release in mGluR1-transfected HEK293 cells (Example 4); format: cell-based; parameters: expressed in transfected cells; host or cells: HEK293; settings: 3 mM/6 mM calcium, after wash with 0 mM calcium
Sequence of mGluR1 (P23385 19-1199): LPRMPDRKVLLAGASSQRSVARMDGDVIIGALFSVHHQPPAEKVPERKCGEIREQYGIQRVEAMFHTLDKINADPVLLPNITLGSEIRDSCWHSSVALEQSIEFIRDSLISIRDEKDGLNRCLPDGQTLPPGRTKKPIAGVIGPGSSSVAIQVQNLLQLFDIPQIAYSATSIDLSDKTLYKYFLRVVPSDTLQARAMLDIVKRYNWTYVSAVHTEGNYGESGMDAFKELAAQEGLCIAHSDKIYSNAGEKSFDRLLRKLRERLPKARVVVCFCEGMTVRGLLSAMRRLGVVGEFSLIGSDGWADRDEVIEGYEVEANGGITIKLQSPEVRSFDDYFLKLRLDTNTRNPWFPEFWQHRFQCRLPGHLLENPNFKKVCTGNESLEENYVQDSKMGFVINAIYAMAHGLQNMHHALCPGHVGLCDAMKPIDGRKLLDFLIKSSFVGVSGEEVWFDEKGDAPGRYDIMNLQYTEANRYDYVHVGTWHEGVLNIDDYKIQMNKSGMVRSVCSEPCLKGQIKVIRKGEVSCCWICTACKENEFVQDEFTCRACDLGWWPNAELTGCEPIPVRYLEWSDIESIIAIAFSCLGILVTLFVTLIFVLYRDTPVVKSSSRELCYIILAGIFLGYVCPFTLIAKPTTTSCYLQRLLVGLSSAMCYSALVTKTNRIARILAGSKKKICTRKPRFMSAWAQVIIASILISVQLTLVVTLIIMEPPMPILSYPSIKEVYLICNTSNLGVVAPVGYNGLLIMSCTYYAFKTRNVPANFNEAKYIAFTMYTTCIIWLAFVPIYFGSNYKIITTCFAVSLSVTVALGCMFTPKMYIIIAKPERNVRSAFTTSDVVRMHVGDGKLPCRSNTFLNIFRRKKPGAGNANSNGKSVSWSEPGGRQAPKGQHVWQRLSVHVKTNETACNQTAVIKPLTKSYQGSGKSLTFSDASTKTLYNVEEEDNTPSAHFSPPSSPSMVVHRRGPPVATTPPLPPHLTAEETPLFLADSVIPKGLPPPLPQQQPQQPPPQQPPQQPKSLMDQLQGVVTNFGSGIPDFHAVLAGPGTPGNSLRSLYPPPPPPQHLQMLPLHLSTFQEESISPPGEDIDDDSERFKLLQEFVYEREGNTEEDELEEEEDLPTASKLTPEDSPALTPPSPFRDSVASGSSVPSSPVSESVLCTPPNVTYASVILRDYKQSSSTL
Protocol: The coverslips with transfected, Fura-2-loaded HEK293 cells were placed diagonally in 3-ml quartz cuvettes containing bath buffer. The fluorescence spectra at 510 nm were measured during stepwise increases in [Ca2+]o with alternating excitation at 340 or 380 nm. The ratio of the intensities of the emitted light at 510 nm when excited at 340 or 380 nm was used to monitor changes in [Ca2+]i. mCherry was genetically fused into mGluR1 pcDNA. so cells have fluorescent intensity at 550 nm was selected for further analysis.

T1 sequence (P23385 19-1199): as above
T2 sequence (P23385 19-1199 D322I): as the sequence (P23385 19-1199) above, with D304I counted along it
Sequence of mGluR5 (P31424 21-1203): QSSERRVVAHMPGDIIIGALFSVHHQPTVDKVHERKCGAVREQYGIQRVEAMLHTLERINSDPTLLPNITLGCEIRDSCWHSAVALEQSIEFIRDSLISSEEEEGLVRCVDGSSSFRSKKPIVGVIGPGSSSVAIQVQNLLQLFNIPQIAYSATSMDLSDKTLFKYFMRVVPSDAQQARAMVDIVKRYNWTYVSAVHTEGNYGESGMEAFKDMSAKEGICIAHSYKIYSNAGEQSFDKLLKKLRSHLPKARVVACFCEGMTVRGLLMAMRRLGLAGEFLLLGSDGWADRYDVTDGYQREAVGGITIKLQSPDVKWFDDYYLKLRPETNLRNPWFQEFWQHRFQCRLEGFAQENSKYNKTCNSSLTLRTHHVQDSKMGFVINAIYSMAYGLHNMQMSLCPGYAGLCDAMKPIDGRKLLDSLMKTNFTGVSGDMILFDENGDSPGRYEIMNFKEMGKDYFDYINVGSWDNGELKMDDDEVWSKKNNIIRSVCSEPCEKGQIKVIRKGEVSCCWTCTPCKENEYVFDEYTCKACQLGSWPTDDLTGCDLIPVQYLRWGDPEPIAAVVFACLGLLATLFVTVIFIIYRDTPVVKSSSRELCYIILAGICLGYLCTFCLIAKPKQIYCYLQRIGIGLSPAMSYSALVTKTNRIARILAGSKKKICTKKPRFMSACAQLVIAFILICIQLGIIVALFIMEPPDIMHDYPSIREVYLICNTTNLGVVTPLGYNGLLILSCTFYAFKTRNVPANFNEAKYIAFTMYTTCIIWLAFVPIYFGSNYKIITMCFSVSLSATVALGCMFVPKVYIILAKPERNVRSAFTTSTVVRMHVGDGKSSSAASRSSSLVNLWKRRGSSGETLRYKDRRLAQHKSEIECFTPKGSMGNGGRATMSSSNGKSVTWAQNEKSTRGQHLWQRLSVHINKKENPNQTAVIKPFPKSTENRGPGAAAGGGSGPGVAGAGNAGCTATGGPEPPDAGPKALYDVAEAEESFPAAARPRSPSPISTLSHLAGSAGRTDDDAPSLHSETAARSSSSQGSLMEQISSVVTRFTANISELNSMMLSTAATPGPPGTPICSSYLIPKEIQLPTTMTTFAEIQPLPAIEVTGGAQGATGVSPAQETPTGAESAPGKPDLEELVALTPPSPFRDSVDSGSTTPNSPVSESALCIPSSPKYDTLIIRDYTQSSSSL
T3 sequence (P23385 19-1199 E325I): as the sequence (P23385 19-1199) above, with E307I counted along it

[Ca+2] [[Ca^2+]o]
Fold increase of the EC50 for [Ca^2+]o ([1]; 0 versus 0.5 mM MCPG): ~1.7 fold | EC50 ([1]; 40 μM CPCCOEt, read-out: EC50 of mGluR1α for [Ca^2+]o): 28700 µM | Response to [Ca^2+]o: nHill ([1]; 0.5 mM (s)-MCPG): 2.6 | Response to [Ca^2+]o: Maximal Response ([1]; 0.5 mM (s)-MCPG): 67 ± 2 | EC50 ([1]; 0.5 mM (s)-MCPG, read-out: Response to [Ca^2+]o: EC50): 6000 µM | Response to [Ca^2+]o: nHill ([1]; (s)-MCPG 0): 6.4 | Response to [Ca^2+]o: Maximal Response ([1]; (s)-MCPG 0): 85 ± 2 | EC50 ([1]; (s)-MCPG 0, read-out: Response to [Ca^2+]o: EC50): 3500 µM | Response to [Ca^2+]o: nHill ([1]; CPCCOEt 0): 6.4 | Response to [Ca^2+]o: Maximal Response ([1]; CPCCOEt 0): 85 ± 2% | EC50 ([1]; CPCCOEt 0, read-out: Response to [Ca^2+]o: EC50): 3500 µM | Response to [Ca^2+]o: nHill ([1]; CPCCOEt Conc. 5 (μM)): 1.3 | Response to [Ca^2+]o: Maximal Response ([1]; CPCCOEt Conc. 5 (μM)): 75 ± 3% | EC50 ([1]; CPCCOEt Conc. 5 (μM), read-out: Response to [Ca^2+]o: EC50): 7600 µM | Response to [Ca^2+]o: nHill ([1]; CPCCOEt Conc. 40 (nM)): 1.1 | Response to [Ca^2+]o: Maximal Response ([1]; CPCCOEt Conc. 40 (nM)): 60 ± 3% | Max. Res. to Ca^2+ ([1]; Ro 67-4853 0 nM): 85 ± 2 | EC50 ([1]; Ro 67-4853 0 nM, read-out: EC50 of Ca^2+): 3500 µM | Max. Res. to Ca^2+ ([1]; Ro 67-4853 30 nM): 83 ± 6 | EC50 ([1]; Ro 67-4853 30 nM, read-out: EC50 of Ca^2+): 2100 µM | Max. Res. to Ca^2+ ([1]; Ro 67-4853 300 nM): 83 ± 2 | EC50 ([1]; Ro 67-4853 300 nM, read-out: EC50 of Ca^2+): 700 µM | EC50 ([1]; in the presence of 5 μM CPCCOEt, read-out: EC50 of mGluR1α for [Ca^2+]o): 14700 µM | Kd ([2]; WT, in the presence of 30 nM [^3H]-L-Quis, read-out: KD, [Ca^2+]o-binding affinity of mGluR1α): 0.3 mM | EC50 ([2]; wild type receptor, read-out: EC50 of [Ca^2+]o for enhancing L-Quis-binding): ~0.3 mM | Kd [3]: 0.6 mM | Kd [4]: > 20 mM | Extracellular Ca^2+ concentration change that started to induce intracellular oscillation [5]: 0.05 mM | Activation of mGluR1 by calcium alone [6]: no response was observed
